Here are results for three molecules from patent US8372598B2 (priority 2010, dated 2013).

Assay [1] has as its system mutant 10277. Description: Growth on agar plates with varying NaCl. It counts as cell-based, Clostridium. The note with it: for CFU/ml: 48 hours.
The test system of assay [2] is strain Co-6232. The experiment in a line: MIC for NaCl. It counts as cell-based, Clostridium species. The note with it: NaCl MIC determination.
Assay [3] deals with mutants of Co-9064 selected as in Example 1. The experiment in a line: Salt MIC / growth on NaCl plates, salt selection mutants as a group. It counts as cell-based, Clostridium.
Assay [4] deals with mutant 10256. The experiment in a line: Growth on agar plates with varying NaCl. It counts as cell-based, Clostridium. The note with it: for CFU/ml: 48 hours.
In assay [5] the test system is strain Co-1533. The experiment in a line: MIC for NaCl. Type of assay: cell-based, Clostridium species. The note with it: NaCl MIC determination.
Assay [6] deals with parent Clostridium strain. The experiment in a line: Growth on agar plates with varying NaCl. Type of assay: cell-based. The note with it: for CFU/ml: 48 hours.
In assay [7] the test system is strain Co-9064. Description: MIC for NaCl. It counts as cell-based, Clostridium species. The note with it: NaCl MIC determination.
In assay [8] the test system is mutant 11303. Description: Growth on agar plates with varying NaCl. It counts as cell-based, Clostridium. The note with it: for CFU/ml: 48 hours.
The subject of assay [9] is mutant 11301. Description: Growth on agar plates with varying NaCl. It counts as cell-based, Clostridium. The note with it: for CFU/ml: 48 hours.
Assay [10] relates to mutant #2.
Assay [11] concerns mutant #1.
Assay [12] concerns mutants of Co-9064 selected as in Example 1. The note with it: grown at increasing concentrations of butanol, FIGS. 2A and 2B.
The subject of assay [13] is parent. The note with it: OD600, parent.
Assay [14] has as its system Co-5673. Description: microbe, parasite or virus in culture. Type of assay: cell-based, Clostridium.
In assay [15] the test system is Co-2164. The experiment in a line: microbe, parasite or virus in culture. Type of assay: cell-based, Clostridium.
[16] abbreviates: Clostridium, 40 min, read-out: Survival (% of control).

For `[Cl-].[Na+]` [NaCl, sodium chloride], the CFU/ml result is “lawn” in assay [1] (NaCl 350 mM); “lawn” in [1] (NaCl 400 mM); 2930 CFU/ml in assay [1] (NaCl 425 mM); 150 CFU/ml in [1] (NaCl 450 mM); 0 CFU/ml in assay [1] (NaCl 475 mM); “lawn” in assay [4] (NaCl 350 mM). The CFU/ml result in assay [4] (NaCl 400 mM) is on record as “lawn”; in assay [4] (NaCl 425 mM) it was 480 CFU/ml; in [4] (NaCl 450 mM) it was 20 CFU/ml; in assay [4] (NaCl 475 mM), 0 CFU/ml; in assay [6] (NaCl 350 mM) it was 6000 CFU/ml; in assay [6] (NaCl 400 mM) it was 0 CFU/ml. In addition, the CFU/ml is 0 CFU/ml in assay [6] (NaCl 425 mM); 0 CFU/ml in assay [6] (NaCl 450 mM); 0 CFU/ml in assay [6] (NaCl 475 mM); “lawn” in assay [8] (NaCl 350 mM); “lawn” in assay [8] (NaCl 400 mM); 800 CFU/ml in [8] (NaCl 425 mM). For the same molecule, the CFU/ml in assay [8] (NaCl 450 mM) is given as 10 CFU/ml; in assay [8] (NaCl 475 mM) it was 0 CFU/ml; in assay [9] (NaCl 350 mM) it was “lawn”; in assay [9] (NaCl 400 mM) it was “lawn”; in assay [9] (NaCl 425 mM) it was 220 CFU/ml; in [9] (NaCl 450 mM) it was 30 CFU/ml. Moreover, the CFU/ml in assay [9] (NaCl 475 mM) came out at 0 CFU/ml. The “grew on plates containing up to” value in [1] (NaCl plates, mutant 10277) was 450 mM; in assay [4] (NaCl plates, mutant 10256), 450 mM; in [6] (NaCl plates, parent strain), 325 mM; in [8] (NaCl plates, mutant 11303), 450 mM; in assay [9] (NaCl plates, mutant 11301), 450 mM. Also, the “highest concentration of salt at which growth was observed” value in assay [2] was found to be 325 mM. Besides, the “increase of salt tolerance (salt MIC) compared to the parent strain” value in assay [3] (mutants versus parent) is “more than 100 mM”. In addition, the “growth up to” value in assay [3] (solid medium, four of the mutants) was found to be 450 mM. In addition, the “highest concentration at which growth was observed” value turned out to be 275 mM in [5] and 300 mM in [7]. Moreover, in assay [6] (solid medium, parent), the “no growth at this NaCl concentration and higher” value is given as no less than 400 mM.
n-butanol: the entries for the “% improvement” value in assay [10] and in [11] were 69.96% and 20.89%, respectively. In addition, the results for the “% of added n-butanol (v/v) at 50% inhibition” value in assay [10], in [11] and in assay [13] were 1.66 % (v/v), 1.18 % (v/v) and 0.98 % (v/v), respectively. Also, the “butanol tolerance compared to the parent strain” value in assay [12] is given as “improved butanol tolerance”.
As to `CCOS(C)(=O)=O` [EMS, ethyl methane sulfonate], the “Survival (count)” value is 3.8 × 10^6 in [14] (30 μg/ml EMS, 40 minutes, 32° C., Co-5673) and 5.8 × 10^6 (14%) in assay [15]. Moreover, the figures for the activity at 30 µg/mL in assay [14] (setting [16]) and in [15] (setting [16]) were 4% and 14%, respectively. Also, in assay [15], the “higher survival rate in comparison to Co-5673” value stood at 10%.
